Experimental data published in US20090048258A1, “Amide Compound” (priority 2005, published 2009).

These compounds were tested against T1, Human DGAT1 (Homo sapiens, UniProt O75907) (assay: DGAT inhibitory activity: [14C]-triglyceride synthesis by DGAT1 high expression Sf9 microsome). Details: Table 1, 25 μM dioleoylglycerol, 25 μM [14C]-Oleoyl-CoA, 32° C., 15 min, read-out: DGAT inhibitory activity (according to IC50).
T1 construct: my translation of the primer: M-G-DYKDDDD-GDRGSSRRR) (N); made in house; host or cells: Sf9 insect cells (recombinant baculovirus BAC-DGAT1, pFASTBAC1); microsome fraction
T1 sequence (O75907 1-488): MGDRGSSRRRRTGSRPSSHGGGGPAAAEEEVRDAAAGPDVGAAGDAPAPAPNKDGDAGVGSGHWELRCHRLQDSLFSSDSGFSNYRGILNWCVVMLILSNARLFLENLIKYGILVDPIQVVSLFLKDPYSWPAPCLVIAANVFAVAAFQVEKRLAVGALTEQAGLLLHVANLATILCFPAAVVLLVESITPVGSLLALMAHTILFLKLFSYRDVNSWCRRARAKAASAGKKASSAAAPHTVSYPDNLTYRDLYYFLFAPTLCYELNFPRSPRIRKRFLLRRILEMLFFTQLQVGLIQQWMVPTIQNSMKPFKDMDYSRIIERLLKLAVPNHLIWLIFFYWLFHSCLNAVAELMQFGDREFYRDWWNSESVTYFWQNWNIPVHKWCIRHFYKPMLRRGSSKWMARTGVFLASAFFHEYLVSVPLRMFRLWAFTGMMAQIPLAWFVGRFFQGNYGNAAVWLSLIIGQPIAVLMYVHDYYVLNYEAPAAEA
Assay type: biochemical
Experimental: The primer base sequence is shown below.
The PCR reaction was conducted using a KOD-plus kit (TOYOBO). The obtained PCR product was electrophoresed on agarose gel (1%), the DNA fragment amplified by PCR was recovered from the gel, and then digested with restriction enzymes EcoRI and SpeI. […] Furthermore, using BAC-TO-BAC Baculovirus Expression System (Invitrogen), recombinant baculovirus BAC-DGAT1 was prepared.
SF9 cells were sown at 1×10^6 cells/ml on Sf-900II SEM medium (1 L, Invitrogen) containing 10% fetal calf serum (Trace), 50 mg/L gentamicin (Invitrogen) and 0.1% Pluronic F-68 (Invitrogen), and shaking culture was performed using a 2 L volume Erlenmeyer at 27° C., 100 rpm. After culturing for 24 hr, recombinant baculovirus BAC-DGAT1 (6.7 mL) was added, and the mixture was further cultured for 3 days. The culture medium was centrifuged at 2,000 rpm for 5 min to give virus-infected cells. The infected cells were washed with a phosphate buffered saline (Invitrogen), centrifuged under the same conditions, and the cells were preserved at −80° C. The cryopreserved cells were thawed in ice, suspended in buffer A (50 mM Tris buffer (30 mL, pH 7.4) containing 20% glycerol, 0.15 M NaCl) supplemented with Complete Protease Inhibitor (Boehringer), and ruptured 3 times with a Polytron homogenizer (Kinematica) at 20,000 rpm for 30 sec. The Sf9 microsome fractions were obtained by a conventional method and cryopreserved at −80° C. as a DGAT1 high expression Sf9 microsome.
As a DGAT1 reaction buffer, a solution having a composition of 100 mM Tris-HCl (pH 7.5), 250 mM sucrose, 150 mM MgCl2, 0.01% bovine serum albumin (BSA) was used. […] A mixture of 300 μL of chloroform:methanol (=1:2) was added to the reaction mixture to quench the reaction. The reaction mixture was sufficiently mixed and saline (200 μL) was added to partition the mixture between a chloroform layer (lower layer) and an aqueous layer (upper layer). The chloroform layer (50 μL) was spotted on a thin layer chromatography silica gel plate (TLC plate, Merck) and developed with a solvent (n-hexane:diethyl ether:ethyl acetate:acetic acid=74:15:15:1). The developed TLC plate was dried, contacted with a BAS imaging plate (manufactured by FUJIFILM) and measured with BAS2500 (manufactured by FUJIFILM) 16 hr later to numerically show the amount of [^14C]-triglyceride (TG amount) produced during the reaction. The inhibitory rate was calculated by the following formula:
Inhibitory rate (%)=(1−(TG amount in the case with addition of test compound−blank TG amount)/(control TG amount−blank TG amount))×100
The count of the triglyceride produced in the solution reacted without addition of the test compound was used as a “control TG amount”, and the count of the triglyceride produced in the solution reacted without addition of the test compound and DGAT1 high expression Sf9 microsome was used as a “blank TG amount”.

SMILES	IC50
COc1cc2c(cc1OC)C(=O)[C@H](CC(=O)Nc1nc(-c3ccccc3)c(Cc3ccccc3)s1)C2 (stereo in doubt) [Example 6, N-(5-benzyl-4-phenyl-1,3-thiazol-2-yl)-2-(5,6-dimethoxy-1-oxo-2,3-dihydro-1H-inden-2-yl)acetamide]	10 to 50 nM
CCOc1ccc(C(=O)CCC(=O)Nc2nc(-c3ccccc3)c(Cc3ccccc3)s2)cc1 [Example 1, N-(5-benzyl-4-phenyl-1,3-thiazol-2-yl)-4-(4-ethoxyphenyl)-4-oxobutanamide]	≤ 10 nM
O=C(CCC(=O)c1ccccc1)Nc1nc(-c2ccccc2)c(Cc2ccccc2)s1 [Example 2, N-(5-benzyl-4-phenyl-1,3-thiazol-2-yl)-4-oxo-4-phenylbutanamide]	50 to 500 nM
CCOc1cccc(C(=O)CCC(=O)Nc2nc(-c3ccccc3)c(Cc3ccccc3)s2)c1 [Example 5, N-(5-benzyl-4-phenyl-1,3-thiazol-2-yl)-4-(3-ethoxyphenyl)-4-oxobutanamide]	≤ 10 nM
O=C(CCC(=O)c1ccc2c(c1)CCCC2)Nc1nc(-c2ccccc2)c(Cc2ccccc2)s1 [Example 7, N-(5-benzyl-4-phenyl-1,3-thiazol-2-yl)-4-oxo-4-(5,6,7,8-tetrahydronaphthalen-2-yl)butanamide]	≤ 10 nM
CCOc1ccc(C(=O)CCC(=O)Nc2nc(-c3ccccc3)c(Cc3ccccc3)s2)cc1Br [Example 25, N-(5-benzyl-4-phenyl-1,3-thiazol-2-yl)-4-(3-bromo-4-ethoxyphenyl)-4-oxobutanamide]	≤ 10 nM
CCCc1ccc(C(=O)CCC(=O)Nc2nc(-c3ccccc3)c(Cc3ccccc3)s2)cc1 [Example 26, N-(5-benzyl-4-phenyl-1,3-thiazol-2-yl)-4-oxo-4-(4-propylphenyl)butanamide]	50 to 500 nM
O=C(CCC(=O)c1ccc2c(c1)CCO2)Nc1nc(-c2ccccc2)c(Cc2ccccc2)s1 [Example 27, N-(5-benzyl-4-phenyl-1,3-thiazol-2-yl)-4-(2,3-dihydro-1-benzofuran-5-yl)-4-oxobutanamide]	≤ 10 nM
O=C(CCC(=O)c1ccc(OC(F)(F)F)cc1)Nc1nc(-c2ccccc2)c(Cc2ccccc2)s1 [Example 28, N-(5-benzyl-4-phenyl-1,3-thiazol-2-yl)-4-oxo-4-[4-(trifluoromethoxy)phenyl]butanamide]	50 to 500 nM
COc1cc2c(cc1C(=O)CCC(=O)Nc1nc(-c3ccccc3)c(Cc3ccccc3)s1)CCCC2 [Example 29, N-(5-benzyl-4-phenyl-1,3-thiazol-2-yl)-4-(3-methoxy-5,6,7,8-tetrahydronaphthalen-2-yl)-4-oxobutanamide]	10 to 50 nM
CCOC(=O)/C=C/c1cc(C(=O)CCC(=O)Nc2nc(-c3ccccc3)c(Cc3ccccc3)s2)ccc1OCC [Example 30, ethyl (2E)-3-(5-{4-[(5-benzyl-4-phenyl-1,3-thiazol-2-yl)amino]-4-oxobutanoyl}-2-ethoxyphenyl)acrylate]	10 to 50 nM

Other lines, results leading:

IC50	SMILES
≤ 10 nM	CCOc1ccc(C(=O)CCC(=O)Nc2nc(-c3ccccc3)c(Cc3ccccc3)s2)cc1OCC [Example 3, N-(5-benzyl-4-phenyl-1,3-thiazol-2-yl)-4-(3,4-diethoxyphenyl)-4-oxobutanamide]
50 to 500 nM	CCOc1ccc(C(=O)CCC(=O)Nc2cc(-c3ccccc3)cc(-c3ccccc3)c2)cc1OCC [Example 8, 4-(3,4-diethoxyphenyl)-4-oxo-N-(1,1′:3′,1″-terphenyl-5′-yl)butanamide]
50 to 500 nM	CCOC(=O)CCc1ccc(NC(=O)CCC(=O)c2ccc(OCC)c(OCC)c2)cc1-c1ccccc1 [Example 9, ethyl 3-(5-{[4-(3,4-diethoxyphenyl)-4-oxobutanoyl]amino}biphenyl-2-yl)propanoate]
500 to 10000 nM	CCOc1ccc(C(=O)CCC(=O)Nc2ccc(CCC(=O)O)c(-c3ccccc3)c2)cc1OCC [Example 10, 3-(5-{[4-(3,4-diethoxyphenyl)-4-oxobutanoyl]amino}biphenyl-2-yl)propanoic acid]
10 to 50 nM	CCOc1ccc(C(=O)CCC(=O)Nc2cc(-c3ccccc3)cc(-c3ccccc3)n2)cc1OCC [Example 11, 4-(3,4-diethoxyphenyl)-N-(4,6-diphenylpyridin-2-yl)-4-oxobutanamide]
500 to 10000 nM	CCOc1ccc(C(=O)CCC(=O)Nc2cc(-c3ccccc3)nc(-c3ccccc3)c2)cc1OCC [Example 12, 4-(3,4-diethoxyphenyl)-N-(2,6-diphenylpyridin-4-yl)-4-oxobutanamide]
50 to 500 nM	CCOc1ccc(C(=O)CCC(=O)Nc2ncc(-c3ccccc3)cc2-c2ccccc2)cc1OCC [Example 13, 4-(3,4-diethoxyphenyl)-N-(3,5-diphenylpyridin-2-yl)-4-oxobutanamide]
50 to 500 nM	CCOc1ccc(C(=O)CCC(=O)Nc2cc(-c3ccccc3)nc(-c3ccccc3)n2)cc1OCC [Example 14, 4-(3,4-diethoxyphenyl)-N-(2,6-diphenylpyrimidin-4-yl)-4-oxobutanamide]
50 to 500 nM	CCOc1ccc(C(=O)CCC(=O)Nc2cc(-c3ccc(OCOC)cc3)c3ccccc3n2)cc1OCC [Example 15, 4-(3,4-diethoxyphenyl)-N-{4-[4-(methoxymethoxy)phenyl]quinolin-2-yl}-4-oxobutanamide]
10 to 50 nM	CCOc1ccc(C(=O)CCC(=O)Nc2cc(-c3ccccc3)c(Cc3ccccc3)s2)cc1OCC [Example 17, N-(5-benzyl-4-phenyl-2-thienyl)-4-(3,4-diethoxyphenyl)-4-oxobutanamide]
50 to 500 nM	CCOc1ccc(C(=O)CCC(=O)Nc2cc(-c3ccccc3)sc2-c2ccccc2)cc1OCC [Example 18, 4-(3,4-diethoxyphenyl)-N-(2,5-diphenyl-3-thienyl)-4-oxobutanamide]
10 to 50 nM	CCOc1ccc(C(=O)CCC(=O)Nc2ccn(Cc3ccccc3)c2-c2ccccc2)cc1OCC [Example 19, N-(1-benzyl-2-phenyl-1H-pyrrol-3-yl)-4-(3,4-diethoxyphenyl)-4-oxobutanamide]
50 to 500 nM	CCOc1ccc(C(=O)CCC(=O)Nc2cn(Cc3ccccc3)nc2-c2ccccc2)cc1OCC [Example 20, N-(1-benzyl-3-phenyl-1H-pyrazol-4-yl)-4-(3,4-diethoxyphenyl)-4-oxobutanamide]
500 to 10000 nM	CCOc1ccc(C(=O)CCC(=O)Nc2cnn(Cc3ccccc3)c2-c2ccccc2)cc1OCC [Example 21, N-(1-benzyl-5-phenyl-1H-pyrazol-4-yl)-4-(3,4-diethoxyphenyl)-4-oxobutanamide]
≤ 10 nM	CCOc1ccc(C(=O)CCC(=O)Nc2cc(-c3ccc(O)cc3)c3ccccc3n2)cc1OCC [Example 22, 4-(3,4-diethoxyphenyl)-N-[4-(4-hydroxyphenyl)quinolin-2-yl]-4-oxobutanamide]
500 to 10000 nM	CCOc1ccc(C(=O)CCC(=O)Nc2cc(-c3ccc(OCC(=O)O)cc3)c3ccccc3n2)cc1OCC [Example 23, [4-(2-{[4-(3,4-diethoxyphenyl)-4-oxobutanoyl]amino}quinolin-4-yl)phenoxy]acetic acid]
10 to 50 nM	CCCc1cc(C(=O)CCC(=O)Nc2nc(-c3ccccc3)c(Cc3ccccc3)s2)ccc1OCC [Example 24, N-(5-benzyl-4-phenyl-1,3-thiazol-2-yl)-4-(4-ethoxy-3-propylphenyl)-4-oxobutanamide]
